Experiment [1] deals with T1, CEF (Capping Enzyme of Flavivirus) (Dengue virus type 2, UniProt P14340).
T1 construct: is a thirty-three kDa N-terminal domain of the RNA-dependent RNA polymerase; made in house; host or cells: E. coli (vector pQE30)
The experiment in a line: Competition with α-32P-GTP for covalent binding to CEF (no UV, gel electrophoresis/autoradiography). More on the design: species or system Dengue virus type 2 (New Guinea). Particulars: 0-1000 μM competitor, 10 min before α-32P-GTP, with magnesium. On the procedure: In the drawings, as noted above, FIGS. 1A and 1B are a pair of photographs of gel electrophoresis. […] 2 μg of CEF was incubated with 50 μM (1 μCi) of either α-^32P-GTP (lane 1, 2, 5, 6) or α-^32P-ATP (lanes 3, 4) in 50 mM Tris pH 7.6, 5 mM DTT in the presence (lane 1, 3-6)) or absence (lane 2) of 5 mM Mg^2+. The sample was cross-linked using UV irradiation (254 nm), boiled for 5 min, and subjected to denaturing gel electrophoresis. Products were analyzed and quantified using photostimulable plates and a FujiImager. Bacteriophage T4 DNA ligase served as a positive control (lane 5). The F25A variant of CEF was purified under the same conditions as those of wild-type CEF. Upper panels show the comassie-blue stained gels, and lower panels the corresponding autoradiographic analysis. […] CEF was incubated during 10 min with increasing concentrations of Ribavirin 5′-triphosphate (0-50-250-500-750-1000 μM, lanes 1- to 6, respectively) before addition of α-^32P-GTP to the reaction mixture and further incubation for 20 min. The mixture was boiled for 5 min, subjected to denaturing gel electrophoresis, and the gel analyzed and quantified as in panel A. Upper panels show the comassie-blue stained gels, and lower panels the corresponding autoradiographic analysis. Ribavirin: Ribavirin 5′-triphosphate; Lig: Bacteriophage T4 DNA ligase. […]

The target of experiment [2] is T1, CEF (Capping Enzyme of Flavivirus). Put plainly: UV-crosslinking of α-32P-GTP (or α-32P-ATP) to CEF, direct binding. Also on record: species or system Dengue virus type 2 (New Guinea). On the procedure:
In the drawings, as noted above, FIGS. 1A and 1B are a pair of photographs of gel electrophoresis. […] 2 μg of CEF was incubated with 50 μM (1 μCi) of either α-^32P-GTP (lane 1, 2, 5, 6) or α-^32P-ATP (lanes 3, 4) in 50 mM Tris pH 7.6, 5 mM DTT in the presence (lane 1, 3-6)) or absence (lane 2) of 5 mM Mg^2+. The sample was cross-linked using UV irradiation (254 nm), boiled for 5 min, and subjected to denaturing gel electrophoresis. Products were analyzed and quantified using photostimulable plates and a FujiImager. Bacteriophage T4 DNA ligase served as a positive control (lane 5). The F25A variant of CEF was purified under the same conditions as those of wild-type CEF. Upper panels show the comassie-blue stained gels, and lower panels the corresponding autoradiographic analysis. […] The mixture was boiled for 5 min, subjected to denaturing gel electrophoresis, and the gel analyzed and quantified as in panel A. Upper panels show the comassie-blue stained gels, and lower panels the corresponding autoradiographic analysis. […]
The binding affinity constant of GTP to CEF can be easily determined using a fixed concentration of CEF and increasing concentrations of radiolabeled GTP as described in FIG. 1A. […]

Experiment [3] has the same target. Put plainly: Competition with radiolabeled GTP for CEF, CEF-GTP complex assayed by UV-crosslinking. The format is binding, Dengue virus type 2 (New Guinea). On the procedure: The invention can also be useful in methods for determining the inhibitory power of a biologically active compound acting as a competitive inhibitor of GTP comprising: • a) incubating CEF with radiolabeled GTP, • b) adding selected different concentrations of the biologically active compound, • c) assaying resulting radiolabeled CEF-GTP complex produced from the incubation, • d) quantifying an amount of radiolabeled CEF-GTP complex produced from the assay, • e) comparing the amount to a binding affinity constant of GTP to CEF, and • f) determining the inhibitory power of the biologically active compound.
More particularly, the incubating step in the methods of the invention is conducted at about 52 μM of GTP. Selected different concentrations of GTP are about 0 μM, about 10 μM, about 20 μM, about 50 μM, about 100 μM, about 200 μM, about 300 μM, about 500 μM, and about 800 μM. Assaying in the methods of the invention comprises UV-crosslinking of α-^32P-GTP to CEF.
The CEF-GTP complex is then assayed using UV-crosslinking as described above. If acyclovir 5′triphosphate competes with radiolabeled GTP for the CEF active-site, acyclovir 5′triphosphate will replace GTP in the active-site.

Consider `NC(=O)c1ncn([C@@H]2O[C@H](COP(=O)(O)OP(=O)(O)OP(=O)(O)O)[C@@H](O)[C@H]2O)n1` [Ribavirin 5′-triphosphate], for which the “effect on GTP-binding to CEF” value in experiment [1] was “able to decrease GTP-binding to CEP”.

In the case of `Nc1nc2c(ncn2[C@@H]2O[C@H](COP(=O)(O)OP(=O)(O)OP(=O)(O)O)[C@@H](O)[C@H]2O)c(=O)[nH]1` [GTP], the Kd in experiment [2] (fixed CEF, increasing radiolabeled GTP, hyperbolic saturation, read-out: binding affinity constant Kd of GTP to CEF) was found to be 52 µM.

`Nc1nc2c(ncn2COCCOP(=O)(O)OP(=O)(O)OP(=O)(O)O)c(=O)[nH]1` [acyclovir 5′-triphosphate]: the Kd in experiment [3] (CEF first incubated with about 52 μM GTP, increasing competitor, read-out: relative binding affinity constant for binding to CEF) is around 79 µM. In addition, the “inhibition of the CEF enzyme (in words)” value in experiment [3] (CEF-acyclovir 5′-triphosphate binding assay) is recorded as “good inhibitor of the CEF enzyme”.

Consider `Nc1ncnc2c1ncn2[C@@H]1O[C@H](COP(=O)(O)OP(=O)(O)OP(=O)(O)O)[C@@H](O)[C@H]1O` [α-^32P-ATP], for which the “labeling of CEF by radiolabeled nucleotide after UV irradiation” value in experiment [2] (50 μM nucleotide, 2 μg CEF, UV 254 nm) was “unable to label CEF significantly”.

The record behind these values is US6949353B2, “Capping enzyme of flavivirus and utilization of this protein in a process to test drugs with antiviral properties” (priority 2001, dated 2005).
